Reference: patent US12371441B2, “Siderophore cephalosporin conjugates and uses thereof” (ARIVA MED GMBH, priority 2019, dated 2025)
≈ marks a conversion by molar mass, not a printed value. Read-outs that look alike come from different tables or passages of the source.

How the values were obtained:
[1] = test system: Acinetobacter baumannii ATCC 15473; experiment: MIC by standard broth microdilution (CLSI), Acinetobacter baumannii; assay type: cell-based
Procedure: (§1) The in vitro activity against bacteria was determined by standard broth microdilution according to the Clinical and Laboratory Standards Institute CLSI document (Performance Standards for Antimicrobial Susceptibility Testing) M100Ed29E (2019) and (Methods for Dilution Antimicrobial Susceptibility Test for Bacteria That Grow Aerobically) M07Ed11 (2018). The data were obtained using cation-adjusted Mueller Hinton broth medium (CAMHB), and additionally iron-depleted CAMHB medium (ID-CAMHB) for compounds with iron-chelating activity.

[2] = test system: Burkholderia cepacia CF and non-CF isolates, n = 5; experiment: MIC by standard broth microdilution (CLSI), Burkholderia cepacia isolates; assay type: cell-based
Procedure: as §1

[3] = test system: Pseudomonas aeruginosa ATCC 27853; experiment: MIC by standard broth microdilution (CLSI), Pseudomonas aeruginosa; assay type: cell-based
Procedure: as §1

[4] = test system: Klebsiella pneumoniae ATCC 43816; experiment: MIC by standard broth microdilution (CLSI), Klebsiella pneumoniae; assay type: cell-based
Procedure: as §1

[5] = test system: Escherichia coli ATCC 25922; experiment: MIC by standard broth microdilution (CLSI), Escherichia coli; assay type: cell-based
Procedure: as §1

[6] = Chromeazurol assay (iron-chelating property); assay type: physicochemical; conditions: absorbance at 630 nm
Procedure: The iron-chelating property was determined by the chromeazurol assay according to Schwyn B., et al, Universal Chemical Assay for the Detection and Determination of Siderophores, 1987. Analytical Biochemistry 160: 47-56. The assay uses the affinity of chrome azurol S/iron(III)/hexadecyltrimethylamimonium bromide for iron(III). When a strong chelator removes the iron from this dye, its color turns from blue to orange and the absorbance measured at 630 nm is indicative for the chelating properties of a siderophore.

[7] = ATCC15473, AB ATCC 15473, cation-adjusted Mueller Hinton broth (CAMHB), read-out: MIC in CAMHB medium
[8] = ATCC15473, AB ATCC 15473, iron-depleted CAMHB (value in parentheses), read-out: MIC in ID-CAMHB medium
[9] = read-out: MIC in ID-CAMHB medium
[10] = ATCC27853, PA ATCC 27853, cation-adjusted Mueller Hinton broth (CAMHB), read-out: MIC in CAMHB medium
[11] = ATCC27853, PA ATCC 27853, iron-depleted CAMHB (value in parentheses), read-out: MIC in ID-CAMHB medium
[12] = ATCC43816, KP ATCC 43816, cation-adjusted Mueller Hinton broth (CAMHB), read-out: MIC in CAMHB medium
[13] = ATCC43816, KP ATCC 43816, iron-depleted CAMHB (value in parentheses), read-out: MIC in ID-CAMHB medium
[14] = ATCC25922, EC ATCC 25922, cation-adjusted Mueller Hinton broth (CAMHB), read-out: MIC in CAMHB medium
[15] = ATCC25922, EC ATCC 25922, iron-depleted CAMHB (value in parentheses), read-out: MIC in ID-CAMHB medium

Row | Structure (SMILES) | MIC [1, 7] [µg/mL] | MIC [1, 8] [µg/mL] | MIC ([2]; read-out: MIC in CAMHB medium) [µg/mL] | MIC [2, 9] [µg/mL] | MIC [3, 10] [µg/mL] | MIC [3, 11] [µg/mL] | MIC [4, 12] [µg/mL] | MIC [4, 13] [µg/mL] | MIC [5, 14] [µg/mL] | MIC [5, 15] [µg/mL] | IC50 [6] [µM] | MIC ([2]; BC CF and non-CF isolates, n = 5 (MIC range), CAMHB, read-out: MIC in CAMHB medium) [µg/mL]
1 | CC(C)(O/N=C(\C(=O)NC1C(=O)N2C(C(=O)O)=C(C=NO[C@H]3C[C@H](NC(=O)c4ccc(O)c(O)c4Cl)C3)CSC12)c1csc(N)n1)C(=O)O (relative stereo) [Example 7, 7-[[(2Z)-2-(2-aminothiazol-4-yl)-2-(1-carboxy-1-methyl-ethoxy)imino-acetyl]amino]-3-[[3-[(2-chloro-3,4-dihydroxy-benzoyl)amino]- trans-cyclobutoxy]iminomethyl]-8-oxo-5-thia-1-azabicyclo[4.2.0]oct-2-ene-2-carboxylic acid] | 2 (≈ 2.71 µM) | 1 (≈ 1.35 µM) | 0.03 to 0.12 (≈ 0.0406 to 0.163 µM) | 0.03 to 0.12 (≈ 0.0406 to 0.163 µM) | 2 (≈ 2.71 µM) | 1 (≈ 1.35 µM) | 0.12 (≈ 0.163 µM) | 0.5 (≈ 0.677 µM) | 0.5 (≈ 0.677 µM) | 0.5 (≈ 0.677 µM) | 4.66 | 
2 | CC(C)(O/N=C(\C(=O)NC1C(=O)N2C(C(=O)O)=C(C=NO[C@H]3CCN(C(=O)c4ccc(O)c(O)c4Cl)C3)CSC12)c1csc(N)n1)C(=O)O (stereo partly drawn) [Example 8, 7-[[(2Z)-2-(2-aminothiazol-4-yl)-2-(1-carboxy-1-methyl-ethoxy)imino-acetyl]amino]-3-{[(3S)-1-(2-chloro-3,4-dihydroxy-benzoyl)pyrrolidine-3-yl]oxyiminomethyl}-8-oxo-5-thia-1-azabicyclo[4.2.0]oct-2-ene-2-carboxylic acid] | 0.5 (≈ 0.677 µM) | 0.5 (≈ 0.677 µM) |  |  | 1 (≈ 1.35 µM) | 0.25 (≈ 0.339 µM) | < 0.03 | < 0.03 | 0.12 (≈ 0.163 µM) | 0.12 (≈ 0.163 µM) | 5.64 | 
3 | CC(C)(O/N=C(\C(=O)N[C@@H]1C(=O)N2C(C(=O)O)=C(C=NOCc3cc(=O)c(O)cn3O)CS[C@H]12)c1nsc(N)n1)C(=O)O [Example 2, (6R,7R)-7-[[(2Z)-2-(5-amino-1,2,4-thiadiazol-3-yl)-2-(1-carboxy-1-methyl-ethoxy)imino-acetyl]amino]-3-[(1,5-dihydroxy-4-oxo-2-pyridyl)methoxyiminomethyl]-8-oxo-5-thia-1-azabicyclo[4.2.0]oct-2-ene-2-carboxylic acid] | 1 (≈ 1.57 µM) |  | 0.03 to 0.5 (≈ 0.047 to 0.783 µM) | 0.03 to 0.5 (≈ 0.047 to 0.783 µM) | 0.5 (≈ 0.783 µM) | 0.12 (≈ 0.188 µM) | 0.06 (≈ 0.094 µM) |  | 0.06 (≈ 0.094 µM) |  | 9.56 | 
4 | CC(C)(O/N=C(\C(=O)N[C@@H]1C(=O)N2C(C(=O)[O-])=C(C[n+]3ccccc3)CS[C@H]12)c1csc(N)n1)C(=O)O [Ceftazidime, reference compound] | 4 (≈ 7.32 µM) |  |  |  | 2 (≈ 3.66 µM) |  | 0.12 (≈ 0.22 µM) |  | 0.12 (≈ 0.22 µM) |  | > 100 | 4 to 16 (≈ 7.32 to 29.3 µM)
5 | Nc1nc(/C(=N/OCF)C(=O)N[C@@H]2C(=O)N3C(C(=O)O)=C(C=NOCc4cc(=O)c(O)cn4O)CS[C@H]23)ns1 [Example 3, (6R,7R)-7-[[(2Z)-2-(5-amino-1,2,4-thiadiazol-3-yl)-2-(fluoromethoxyimino)acetyl]amino]-3-[(1,5-dihydroxy-4-oxo-2-pyridyl)methoxyiminomethyl]-8-oxo-5-thia-1-azabicyclo[4.2.0]oct-2-ene-2-carboxylic acid] | 8 (≈ 13.7 µM) | 16 (≈ 27.4 µM) |  |  | 4 (≈ 6.84 µM) | 0.5 (≈ 0.855 µM) | ≤ 0.03 | ≤ 0.03 | ≤ 0.03 | ≤ 0.03 | 7.96 | 
